Assay results taken from patent publication US4760052A, “1,6-dicarba-vasopressin compounds” (Smithkline Beckman Corporation, priority 1987, dated 1988).
*1 amine or outer side, *2 acyl side, *3 side chain or, on linkers, in order; H or OH if unused. Where a SMILES comes first, the peptide text is derived from it. Bridges are numbered along the chain shown (N, C = ends). [ ]: non-standard residue; d: D form. X1 = O=C(CC1(S[*:2])CCCCC1)[*:1]

Assays:
[1] = target: vasopressin receptors (V2 -receptors) (Sus scrofa, UniProt P32307); test: biochemical
Method: Antagonistic activity toward the natural anti-diuretic hormone (anti ADH activity) is determined, in vitro, in the medullary tissue of hog or human kidneys and, in vivo, in the hydropenic rat.
These values represent total and non specific binding, respectively.

[2] = test system: hydropenic rat; test: Hydropenic Rat Screen (anti-ADH activity in vivo); details: intraperitoneal, dose required to lower urine osmolality to 300 m-Osmoles/kg
Method: The assay for anti-ADH activity in vivo is the hydropenic rat protocol described below:
Food and water are removed from male rats approximately 18 hours prior to testing. Animals are housed 4 per metabolism cage. At 0 hour, the test compound is administered intraperitoneally to the test group and an equivalent volume of vehicle is administered to both control groups (fasted and non-fasted). Urine volume and osmolality are measured every hour for 4 hours. Test values are recorded as ml of urine excreted (cumulative), mEg/rat electrolyte excreted, mg/rat urea excreted, and osmolality in milli-Osmoles/kg H2 O. A […] is used to determine significance. ED300 is defined as the dose of compound (μg/kg) required to lower urine osmolality to 300 m-Osmoles/kg.

[3] = target: vasopressin stimulated adenylate cyclase; test: vasopressin stimulated adenylate cyclase activity, kidney medullary membrane; assay type: biochemical; details: Swine; antagonism of vasopressin stimulated adenylate cyclase
Method: In the test procedure for assay of adenylate cyclase activity, the amount of ^32 P/cAMP formed in the absence of medullary membrane is determined (blank). The blank value is subtracted from all experimental data. The compound is tested for its effect on basal adenylate cyclase activity and/or on vasopressin stimulated activity. Each determination is carried out in triplicate. The Ka value is derived from a Lineweaver-Burkeplot. Rel. Vmax =(Vmax drug/Vmax vasopressin) x 100. Ki =I/[Ka'/Ka)-1] where I is the concentration of the antagonist and Ka' and Ka are the concentrations of vasopressin required to give half maximal activity of adenylate cyclase in the presence and absence of antagonist, respectively.

Chain of vasopressin receptors (V2 -receptors) (P32307 whole entry): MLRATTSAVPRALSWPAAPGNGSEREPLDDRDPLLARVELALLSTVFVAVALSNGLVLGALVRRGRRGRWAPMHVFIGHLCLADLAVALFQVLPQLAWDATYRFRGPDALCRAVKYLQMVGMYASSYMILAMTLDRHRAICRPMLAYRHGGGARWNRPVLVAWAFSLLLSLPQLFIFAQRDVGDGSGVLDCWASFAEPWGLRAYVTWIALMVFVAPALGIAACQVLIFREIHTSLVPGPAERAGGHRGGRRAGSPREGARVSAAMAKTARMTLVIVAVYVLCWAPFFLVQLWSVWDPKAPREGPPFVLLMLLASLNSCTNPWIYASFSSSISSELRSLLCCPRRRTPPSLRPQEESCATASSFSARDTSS

| Ki [3] [nM] | SMILES | Kb [1] [nM] | ED300 [2] [µg/kg] |
| --- | --- | --- | --- |
| – | CCOc1ccc(C[C@H]2NC(=O)CC3(CCCCC3)SSC[C@H](C(=O)N3CCC[C@H]3C(=O)N[C@@H](CCCNC(=N)N)C(N)=O)NC(=O)[C@H](CC(N)=O)NC(=O)[C@H](C(C)C)NC(=O)[C@H](Cc3ccccc3)NC2=O)cc1 [B, reference compound] ([dY](Et)FVN[dC]PR-NH2; linker N-5 via X1) | 170 | – |
| – | CCOc1ccc(C[C@H]2NC(=O)CC3(CCCCC3)CCC[C@H](C(=O)N3CCC[C@H]3C(=O)N[C@@H](CCCNC(=N)N)C(N)=O)NC(=O)[C@H](CC(N)=O)NC(=O)[C@H](C(C)C)NC(=O)[C@H](Cc3ccccc3)NC2=O)cc1 [Compound D, [1,6(6,6-cyclopentamethylene-2-amino-D-suberic acid)2-(O--ethy1D-tyrosine)-4-valine-9-desglycine]vasopressin] | 72 | – |
| 4.3 | CCOc1ccc(C[C@H]2NC(=O)CC3(CCCCC3)CCC[C@@H](C(=O)N3CCC[C@H]3C(=O)N[C@@H](CCCNC(=N)N)C(N)=O)NC(=O)[C@H](CC(N)=O)NC(=O)[C@H](C(C)C)NC(=O)[C@H](Cc3ccccc3)NC2=O)cc1 [Compound C, [1,6(6,6-cyclopentamethylene-2-amino-L-suberic acid)2-(O--ethylD-tyrosine)-4-valine-9-desglycine]vasopressin] | 8.2 | 8.9 |
| – | CCOc1ccc(C[C@H]2NC(=O)CC3(CCCCC3)SSC[C@@H](C(=O)N3CCC[C@H]3C(=O)N[C@@H](CCCNC(=N)N)C(N)=O)NC(=O)[C@H](CC(N)=O)NC(=O)[C@H](C(C)C)NC(=O)[C@H](Cc3ccccc3)NC2=O)cc1 [A, [1(mercapto-β,cyclopentamethylenepropionic acid)2-(O--ethylD-tyrosine)-4-valine-8-arginine-9-desglycine]vasopressin, reference compound] ([dY](Et)FVNCPR-NH2; linker N-5 via X1) | 12 | – |
